In the test the target is Nuclear receptor coactivator 3 (Homo sapiens) (UniProt Q9Y6Q9). Nature of the test: SRC-3 protein downregulation in breast cancer cells – cell-based, MCF-7, Western blot, powder samples, mechanism study for SRC-3 inhibitor probe project, late-stage follow-up (AID 652066). The note with it: MCF-7 SRC-3 protein level, 24 h.
Nuclear receptor coactivator 3 (Homo sapiens), sequence (Q9Y6Q9 whole entry, looked up): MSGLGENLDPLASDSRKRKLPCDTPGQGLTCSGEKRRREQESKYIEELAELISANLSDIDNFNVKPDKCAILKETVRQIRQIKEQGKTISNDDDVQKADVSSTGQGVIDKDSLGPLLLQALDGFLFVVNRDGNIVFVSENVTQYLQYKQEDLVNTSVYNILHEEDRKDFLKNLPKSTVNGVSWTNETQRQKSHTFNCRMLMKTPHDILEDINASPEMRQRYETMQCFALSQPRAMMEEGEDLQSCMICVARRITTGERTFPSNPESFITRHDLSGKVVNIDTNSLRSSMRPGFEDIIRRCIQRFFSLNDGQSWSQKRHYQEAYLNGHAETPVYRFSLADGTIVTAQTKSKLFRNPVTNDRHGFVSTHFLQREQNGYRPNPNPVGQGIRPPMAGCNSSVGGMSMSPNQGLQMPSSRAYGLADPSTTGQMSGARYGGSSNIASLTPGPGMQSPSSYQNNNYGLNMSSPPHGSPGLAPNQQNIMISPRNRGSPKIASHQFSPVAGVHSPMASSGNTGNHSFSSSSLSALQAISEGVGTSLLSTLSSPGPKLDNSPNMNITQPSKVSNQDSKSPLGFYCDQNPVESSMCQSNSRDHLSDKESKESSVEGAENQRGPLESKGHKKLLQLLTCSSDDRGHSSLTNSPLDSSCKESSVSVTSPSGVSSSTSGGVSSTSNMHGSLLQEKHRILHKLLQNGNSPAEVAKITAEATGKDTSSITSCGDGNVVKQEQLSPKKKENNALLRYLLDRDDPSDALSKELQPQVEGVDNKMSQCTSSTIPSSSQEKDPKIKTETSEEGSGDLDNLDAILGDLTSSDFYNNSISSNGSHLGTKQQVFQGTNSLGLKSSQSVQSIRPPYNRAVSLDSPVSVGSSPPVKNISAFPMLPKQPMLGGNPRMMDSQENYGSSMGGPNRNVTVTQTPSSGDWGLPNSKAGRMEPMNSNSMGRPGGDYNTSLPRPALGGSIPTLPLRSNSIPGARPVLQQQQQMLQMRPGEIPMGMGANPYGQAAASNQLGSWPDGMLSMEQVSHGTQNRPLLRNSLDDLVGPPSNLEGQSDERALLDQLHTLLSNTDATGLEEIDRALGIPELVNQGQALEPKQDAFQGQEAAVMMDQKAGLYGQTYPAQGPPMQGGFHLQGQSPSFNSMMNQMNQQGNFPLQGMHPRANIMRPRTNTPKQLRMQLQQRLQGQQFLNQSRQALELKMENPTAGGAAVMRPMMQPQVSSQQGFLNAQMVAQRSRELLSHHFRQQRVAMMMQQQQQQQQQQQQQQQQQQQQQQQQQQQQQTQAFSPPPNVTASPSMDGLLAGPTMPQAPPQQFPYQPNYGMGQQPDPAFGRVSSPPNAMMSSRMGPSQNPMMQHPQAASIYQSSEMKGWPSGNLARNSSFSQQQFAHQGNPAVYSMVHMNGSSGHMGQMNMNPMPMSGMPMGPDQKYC
For the compound `O=C(Nc1nc(-c2ccccn2)cs1)c1cccc(S(=O)(=O)N2CCOCC2)c1`, the IC50 is less than 2000 nM. With `NC(=O)c1sc2nc3c(c(-c4ccco4)c2c1N)CCC3` the figure was less than 2000 nM.

On to `COc1cc2c(cc1OC)C(NC(=O)C(F)(F)F)CNC2=O` (stereo unspecified), for which the IC50 is less than 2000 nM.

As for `COc1cc(C2c3cc4c(cc3C(OC3OC5COC(c6cccs6)OC5C(O)C3O)C3COC(=O)C23)OCO4)cc(OC)c1O` (stereo unspecified), the IC50 is less than 400 nM. With `O=C(CCl)N1N=C(c2ccco2)CC1c1ccco1` (stereo unspecified) the figure was less than 2000 nM; with `O=C(CCl)N1N=C(c2ccco2)CC1c1cccs1` (stereo unspecified), less than 400 nM.

As usually defined, the IC50 is the point on the concentration scale where inhibition reaches its midpoint.

Source of the values: PubChem BioAssay AID652066 (The Scripps Research Institute Molecular Screening Center, 2013).
